Experimental data from patent publication US20170368069A1, “USE OF 4-(4-FLUORO-2-METHOXYPHENYL)-N--1,3,5-TRIAZIN-2-AMINE FOR TREATING LEUKEMIAS” (Bayer Pharma Aktiengesellschaft, priority 2015, published 2017).
Several values for one entry are separate records, joined by “and”; a condition that tells them apart may be missing. Equal values may be shown once. Entries after “also recorded” stand apart in the source; their conditions may differ.

How the values were obtained:
MV4-11 [1] = assay: Subcutaneous MV4-11 leukemia xenograft, efficacy and tolerability; assay type: in vivo, NOD/SCID mice
Experimental: (§1) The aim of the present experiments was to assess the in vivo efficacy and tolerability of Compound A′ in monotherapy in four leukemia models subcutaneously implanted in NOD/SCID mice.
(§2) The experiments included four in vivo efficacy experiments with female NOD/SCID mice bearing subcutaneous leukemia xenografts. Compound A′ was assessed at one dose level in monotherapy. Anti-tumor activity and tolerability of all groups were assessed using the vehicle control group as a reference.
(§3) Mouse strain, sex: NOD/SCID, female Animals supplied by: Harlan Total number of mice Efficacy test (implanted/randomized): 100/74 Approximate age at implantation: 5-7 weeks Approximate age at randomization: 6-9 weeks
(§4) The tumor models used in this study were derived from commercially available cell lines.
(§5) Leukemia cells were subcutaneously injected as cell suspensions into one flank of immunodeficient NOD/SCID mice under isofluorane anaesthesia (5*10^6 cells per injection). In the case of THP-1 cells, matrigel was used to increase implantation efficacy. For this, 1×10^8 leukemia cells were mixed with matrigel and an appropriate volume of the solution containing 5*10^6 cells was injected as described above.
At randomization, the volume of growing tumors was initially determined. […] The result of the randomization was documented and maintained with the experimental data. Animals not randomized were euthanized. The day of randomization is designated as day 0 of an experiment. […]
(§6) Mice were weighed twice a week. Relative body weights of individual mice in % were calculated by dividing the individual body weight on day X (BWX) by the individual body weight on day 0 (BW0) multiplied by 100 according to the formula: […]
(§7) Group median relative body weights were calculated as well, considering only the weights of mice that were alive on the day in question.
(§8) The tumor volumes were determined by two-dimensional measurement with a caliper on the day of randomization (day 0) and then twice weekly (i.e. on the same days on which mice were weighed). Tumor volumes were calculated according to the formulas: […]
(§9) Anti-tumor activity was evaluated as maximum tumor volume inhibition versus the vehicle control group. […]
(§10) Tumor inhibition for a particular day (T/C in %) was calculated from the ratio of the median RTV values of test versus control groups multiplied by 100.
The minimum (or optimum) T/C % value recorded for a particular test group during an experiment represents the maximum anti-tumor activity for the respective treatment. T/C values were calculated if at least 50% of the randomized animals in a group were alive on the day in question. […]

NOMO-1 [2] = assay: Proliferation assay, NOMO-1; assay type: cell-based; details: Homo sapiens; NOMO-1, acute myeloid leukemia, 11q23 positive; after 72 hours of incubation
HL-60 [3] = assay: Subcutaneous HL-60 leukemia xenograft, efficacy and tolerability; assay type: in vivo, NOD/SCID mice; details: 25 mg/kg/day p.o.
Experimental: as §1, §2, §3, §4
Leukemia cells were subcutaneously injected as cell suspensions into one flank of immunodeficient NOD/SCID mice under isofluorane anaesthesia (5*10^6 cells per injection). In the case of THP-1 cells, matrigel was used to increase implantation efficacy. […]
(§11) At randomization, the volume of growing tumors was initially determined. […]
as §6, §7, §8, §9
Tumor inhibition for a particular day (T/C in %) was calculated from the ratio of the median RTV values of test versus control groups multiplied by 100. […]

OCI-AML-2 = assay: Proliferation assay, OCI-AML-2; assay type: cell-based; details: Homo sapiens, OCI-AML2; OCI-AML-2, acute myeloid leukemia; after 72 hours of incubation
MV4-11 [4] = assay: Proliferation assay, MV4-11; assay type: cell-based; details: Homo sapiens; MV4-11, acute myeloid leukemia, 11q23 positive; after 72 hours of incubation
PL-21 = assay: Proliferation assay, PL-21; assay type: cell-based; details: PL-21, acute myeloid leukemia; after 72 hours of incubation
NOMO-1 [5] = assay: Subcutaneous NOMO-1 leukemia xenograft, efficacy and tolerability; assay type: in vivo, NOD/SCID mice
Experimental: as §1, §2, §3, §4, §5
(§12) At randomization, the volume of growing tumors was initially determined. […] The result of the randomization was documented and maintained with the experimental data. Animals not randomized were euthanized. The day of randomization is designated as day 0 of an experiment.
(§13) Vehicle: 80% (m/V) PEG400 in water for injection Compound A′: preparation of a dosing solution (2.5 mg/ml) once weekly by diluting the Compound A′ powder at 0.25% (w/v) in vehicle; storage of the dosing solution at 4° C.; dosing volume 10 ml/kg
as §6, §7, §8
(§14) Anti-tumor activity was evaluated as maximum tumor volume inhibition versus the vehicle control group. Data evaluation was performed using Oncotest proprietary software.
as §10
(§15) The minimum (or optimum) T/C % value recorded for a particular test group during an experiment represents the maximum anti-tumor activity for the respective treatment. T/C values were calculated if at least 50% of the randomized animals in a group were alive on the day in question.
(§16) Group optimum T/C values (in %) were used for activity rating as follows:
(§17) All leukemia models were implanted by subcutaneous injection of the corresponding cell line into female NOD/SCID mice. Compound A′ was administered orally at one dose level (25 mg/kg/day) in monotherapy once daily and treatment started once subcutaneous tumors were established. A vehicle-treated control group was included in each experiment. […] Anti-tumor activity (tumor growth inhibition) and tolerability of all groups were assessed using the vehicle control group as a reference.

MOLM-13 = assay: Proliferation assay, MOLM-13; assay type: cell-based; details: Homo sapiens; MOLM-13, acute myeloid leukemia, 11q23 positive; after 72 hours of incubation
HL-60 [6] = assay: Proliferation assay, HL-60; assay type: cell-based; details: Homo sapiens; HL-60, acute leukemia; after 72 hours of incubation with the substance
THP-1 = assay: Subcutaneous THP-1 leukemia xenograft, efficacy and tolerability; assay type: in vivo, NOD/SCID mice
Experimental: as §1, §2, §3, §4, §5, §12, §13, §6, §7, §8, §14, §10, §15, §16, §17

KG-1 = assay: Proliferation assay, KG-1; assay type: cell-based; details: Homo sapiens; KG-1, acute myeloid leukemia; after 72 hours of incubation
[7] = system: leukemia xenograft models MV4-11, NOMO-1, THP-1 and HL-60; assay: Leukemia xenograft models, statements pooled over several models; assay type: in vivo; details: leukemia xenografts bearing mice, 25 mg/kg/day p.o.
Experimental: as §1, §2
Mouse strain, sex: NOD/SCID, female Animals supplied by: Harlan Total number of mice Efficacy test (implanted/randomized): 100/74 Approximate age at implantation: 5-7 weeks Approximate age at randomization: 6-9 weeks […]
as §11, §6, §7, §8

COc1cc(F)ccc1-c1ncnc(Nc2cccc(CS(C)(=N)=O)c2)n1 (single isomer, unassigned; (+)) [Compound A′, (+)-4-(4-Fluoro-2-methoxyphenyl)-N-{3-[(S-methylsulfonimidoyl)methyl]phenyl}-1,3,5-triazin-2-amine]
Min. T/C (MV4-11 [1]; MV4-11 xenograft (11q23 translocation), 25 mg/kg/day p.o., days 0-25, minimum on day 14): 11.9 (14) %
anti-tumor activity (in words) (MV4-11 [1]; MV4-11 xenograft, 25 mg/kg/day p.o.): High anti-tumor activity
Activity Rating (MV4-11 [1]; MV4-11 xenograft, 25 mg/kg/day p.o., days 0-25, rating from group optimum T/C): ++ (High activity 10% ≦ T/C < 25%)
Tumor growth versus vehicle control group (MV4-11 [1]; MV4-11 xenograft, Mann-Whitney-Wilcoxon U-test): significantly reduced; also recorded: significantly attenuated
IC50 (NOMO-1 [2]): 328 nM
Min. T/C (HL-60 [3]; HL-60 xenograft (no 11q23 translocation), schedule days 0-6, 11-17, minimum on day 14, 25 mg/kg/day): 63.9% and 63.9 (14) %
anti-tumor activity (in words) (HL-60 [3]; HL-60 xenograft): borderline anti-tumor activity
Activity Rating (HL-60 [3]; HL-60 xenograft, days 0-6, 11-17, rating from group optimum T/C): +/− (Borderline activity 50% ≦ T/C < 65%)
IC50 (OCI-AML-2): 323 nM
IC50 (MV4-11 [4]): 386 nM
IC50 (PL-21): 192 nM
Min. T/C (NOMO-1 [5]; NOMO-1 xenograft (11q23 translocation), 25 mg/kg/day p.o., days 0-25, minimum on day 14): 19.7 (14) %
anti-tumor activity (in words) (NOMO-1 [5]; NOMO-1 xenograft, 25 mg/kg/day p.o.): High anti-tumor activity
Activity Rating (NOMO-1 [5]; NOMO-1 xenograft, 25 mg/kg/day p.o., days 0-25, rating from group optimum T/C): ++ (High activity 10% ≦ T/C < 25%)
group median BWL (body weight loss) (NOMO-1 [5]; NOMO-1 xenograft-bearing mice, 25 mg/kg/day p.o.): up to 0.4%
Tumor growth versus vehicle control group (NOMO-1 [5]; NOMO-1 xenograft, Mann-Whitney-Wilcoxon U-test): significantly reduced; also recorded: significantly attenuated
IC50 (MOLM-13): 320 nM
IC50 (HL-60 [6]): 1120 nM
Min. T/C (THP-1; THP-1 xenograft (11q23 translocation), 25 mg/kg/day p.o., days 0-25, minimum on day 14): 21.0 (14) %
anti-tumor activity (in words) (THP-1; THP-1 xenograft, 25 mg/kg/day p.o.): High anti-tumor activity
Activity Rating (THP-1; THP-1 xenograft, 25 mg/kg/day p.o., days 0-25, rating from group optimum T/C): + (Moderate activity 25% ≦ T/C < 50%)
group median BWL (body weight loss) (THP-1; THP-1 xenograft-bearing mice, 25 mg/kg/day p.o.): up to 0.4%
Tumor growth versus vehicle control group (THP-1; THP-1 xenograft, Mann-Whitney-Wilcoxon U-test): significantly reduced; also recorded: significantly attenuated
IC50 (KG-1): 670 nM
tolerability [7]: acceptable tolerability profile
